According to patent publication US7098206B2, “Pharmaceutically active morpholinol” (SmithKline Beecham Corporation, priority 1998, dated 2006):
pIC50: −log10 of the molar value. Where two headings read alike, the source gives them in different places.

How the values were obtained:
[1] = system: TBZ-induced behavioural depression; test: Tetrabenazine-induced behavioural depression; format: in vivo, Male, CD-1 Mice; conditions: for effect on tetrabenazine-induced behavioural depression: 25 mg/kg (ip), FIG. 1; for dose-effect against TBZ-induced depression: 30 minutes prior to TBZ, n=6, FIGS. 2 and 3
Procedure: FIG. 2. Dose Response of Compound of Formula I Against TBZ-Induced Depression (Compounds administered 30 minutes prior to TBZ, Male, CD-1 Mice, i.p., n=6).
FIG. 3. Dose Response of Compound of Formula II Against TBZ-Induced Depression (Compounds administered 30 minutes prior to TBZ, Male, CD-1 Mice, i.p., n=6).
Tetrabenazine(TBZ)-induced behavioural depression was used as an in vivo measure of antidepressant activity. The test has been validated with a wide range of antidepressants, known to act through noradrenergic mechanisms (Cooper B. R. et al, “Animal models used in the prediction of antidepressant effects in man”, J. Clin. Psychiatry 44: 63–66, 1983). Moreover, the test was also used to identify Wellbutrin® as an anti-depressant. Briefly, animals were injected with the candidate agent (p.o. or i.p.) 30 minutes before receiving an i.p. injection of tetrabenazine (35 mg/kg, as the HCl salt—prepared fresh for each use). Assessments were performed 30 minutes thereafter and included: locomotor activity (1–4 scale); ptosis (1–4 scale) and body temperature as described previously (Cooper, B. R., J. L. Howard, and F. E. Soroko, Animal models used in prediction of antidepressant effects in man (Journal of Clinical Psychiatry, 44: p. 63–6, 1983). In all studies, the scientist performing the assessments was blind to the treatments. All parameters were weighted equally to give a “lumped” score (X) through the following algorithm: X=(1+Ptosis score)/(Activity score*[Temp,treated/Temp,control]

[2] = molecular target: T1, noradrenaline (NA) uptake, synaptosomes from rat hypothalamus (Rattus norvegicus, UniProt Q63380); test: In vitro synaptosomal [3H]-noradrenaline uptake; format: biochemical; conditions: for pIC50: rat hypothalamus synaptosomes
T1 construct: Synaptosomes for use in obtaining in vitro uptake data were prepared from hypothalamus or striatum by gently homogenizing the tissue; from tissue; host or cells: rat hypothalamus synaptosomes
Text: (§1) Similarities and differences. Molecular Pharmacology, 21: p.

[3] = molecular target: T2, dopamine uptake, synaptosomes from rat caudoputamen (Rattus norvegicus, UniProt P23977); test: In vitro synaptosomal [3H]-dopamine uptake; format: biochemical; conditions: for pIC50: rat caudoputamen synaptosomes
T2 construct: Synaptosomes for use in obtaining in vitro uptake data were prepared from hypothalamus or striatum by gently homogenizing the tissue; from tissue; host or cells: rat caudoputamen (striatum) synaptosomes
Text: as §1

[4] = Dose-ranging safety study: serious adverse events (seizures and deaths); format: in vivo; conditions: for seizures observed, in words: 100 mg/kg p.o.
Procedure: Additional dose-ranging studies were performed to determine the range of safe doses for the isomers and the racemate. […]

[5] = system: sexual behaviour of male mice; test: Mouse sexual behaviour model; format: in vivo, mice (C57BL/6 inbred strain); conditions: hydrochloride salt
Procedure: Male (10 weeks old) and female (8 weeks old) mice (C57BL/6 inbred strain, Charles River, Como (Italy) that had no reproductive or copulatory experience were used in the study. Females were brought into behavioral oestrus with s.c. injections of 0.03 mg estradiol benzoate approximately 48 hr before testing and 0.1 mg progesterone, in sesame oil, 4 hr before testing.
The compound of formula (I) (as its hydrochloride salt) was dissolved in saline to provide a solution for intraperitoneal injection at a dose of 3 mg/kg, with a dose volume of 10 ml/kg. Dosing was performed one hour prior to the test.
Tests were conducted in Perspex arenas, 30 cm in diameter and 50 cm high, which were placed in the cage in which males had been placed individually one day prior to test. The sexual behaviour was filmed remotely under red light for 30 min using a video camera and recorder, the test starting immediately after placing a female mouse into the male's cage. Behavior parameters recorded were (i) the extent of male/female interaction, (ii) the extent of genital sniffing, and (iii) the mount frequency (the number of male mounts).

[6] = molecular target: T3, serotonin uptake, synaptosomes from rat hypothalamus (Rattus norvegicus, UniProt P31652); test: biochemical
Procedure: (§2) In vitro uptake was determined, as reported previously, using synaptosomes prepared from rat caudoputamen (for dopamine uptake) and hypothalamus (for NA and serotonin uptake) using [^3H]-dopamine, [^3H]-NA and [^3H]-serotonin as transport substrates, respectively.
(§3) Synaptosomes for use in obtaining in vitro uptake data were prepared from hypothalamus or striatum by gently homogenizing the tissue in a 0.3 M sucrose/25 mM Tris pH 7.4 buffer containing iproniazid phosphate to inhibit monoamine oxidase. The homogenate was centrifuged at 1100×g at 4° C. for 10 min and the supernatant was used for uptake studies. […] Under these conditions uptake was linear with respect to both for substrate and tissue (with <5% total substrate transported). Non-specific uptake was defined as uptake at 0° C. [^3H]-substrate, which had been transported into synaptosomes, was separated from free [^3H]-substrate by filtration over GF/B filters and washing with cold Krebs-Henseleit buffer. The filters were counted for tritum in a liquid scintillation spectrometer.

[7] = system: MPTP-induced Parkinsonian marmosets; test: MPTP-treatment Parkinson's disease model; format: in vivo; conditions: hydrochloride salt, once weekly by oral gavage, MPTP-treated marmosets
Procedure: Locomotor deficits and motor disability were induced in marmosets by the administration of MPTP 2 mg/kg sc on five consecutive days. After the acute effects of MPTP administration had been overcome, bradykinesia, rigidity and loss of vocalisation remained. The compound of formula (I) (as its hydrochloride salt) was administered once weekly by oral gavage, freshly dissolved in 10% sucrose solution with dosages calculated as the free base. […] Assessment of motor disablities was by an observer through a one-way mirror: alertness, checking movements, posture, balance/co-ordination, reaction, vocalisation and motility were each scored. A score of zero indicated a “normally” behaing animal, while a maximum total score of 18 in the monitoring period indicated a severely disabled animal.

[8] = system: CCI-induced decrease in mechanical paw withdrawal threshold; test: Chronic constriction injury model of mononeuropathy; format: in vivo, male Random Hooded rats; conditions: CCI rats, FIG. 6
Text: Mononeuropathy was reproduced in male Random Hooded rats (180–250 g) using the Chronic Constriction Injury (CCI) model as described by Bennett and Xie (1988). Under Isoflurane anaesthesia, the common left sciatic nerve of the rats was exposed at mid thigh level. Four ligatures of Chromic gut (4.0) were tied loosely around the nerve with a 1 mm spacing between each. The wound was then closed and secured with suture staples. The surgical procedure was identical for the sham operated animals except the sciatic nerve was not ligated. The animals were allowed a period of 12 days to recover from the surgery before any behavioural testing began.
The effect of the compound of formula (I) (administered as the hydrochloride salt at 20 mgkg^−1 t.i.d. p.o. chronically for a period of 7 days) on CCI-induced decrease in mechanical paw withdrawal threshold was measured using an algesymeter (Randall & Selitto, 1957).

[9] = molecular target: T3, serotonin uptake, synaptosomes from rat hypothalamus; conditions: at 30 mM (so in the source)
Procedure: as §2, §3

[10] = read-out: IC50, [3H]-Dopamine Uptake
[11] = 3 mg/kg intraperitoneal, one hour prior to 30 min test
[12] = intraperitoneal injection, versus control

T2 sequence (P23977 whole entry): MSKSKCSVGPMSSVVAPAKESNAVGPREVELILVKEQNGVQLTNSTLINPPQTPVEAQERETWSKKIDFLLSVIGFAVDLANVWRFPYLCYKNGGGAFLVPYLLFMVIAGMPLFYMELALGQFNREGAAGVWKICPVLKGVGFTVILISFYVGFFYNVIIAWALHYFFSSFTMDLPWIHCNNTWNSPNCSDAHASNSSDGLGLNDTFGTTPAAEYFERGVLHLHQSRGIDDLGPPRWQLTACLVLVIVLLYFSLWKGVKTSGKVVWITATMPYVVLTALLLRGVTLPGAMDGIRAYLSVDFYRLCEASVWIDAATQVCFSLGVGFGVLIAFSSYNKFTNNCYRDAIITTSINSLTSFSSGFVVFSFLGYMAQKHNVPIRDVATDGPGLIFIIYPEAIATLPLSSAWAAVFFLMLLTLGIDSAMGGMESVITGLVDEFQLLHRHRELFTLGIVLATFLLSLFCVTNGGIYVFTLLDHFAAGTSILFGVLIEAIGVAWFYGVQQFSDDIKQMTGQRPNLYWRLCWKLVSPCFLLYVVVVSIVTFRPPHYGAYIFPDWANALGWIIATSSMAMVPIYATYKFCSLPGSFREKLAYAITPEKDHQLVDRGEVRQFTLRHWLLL
T3 sequence (P31652 whole entry): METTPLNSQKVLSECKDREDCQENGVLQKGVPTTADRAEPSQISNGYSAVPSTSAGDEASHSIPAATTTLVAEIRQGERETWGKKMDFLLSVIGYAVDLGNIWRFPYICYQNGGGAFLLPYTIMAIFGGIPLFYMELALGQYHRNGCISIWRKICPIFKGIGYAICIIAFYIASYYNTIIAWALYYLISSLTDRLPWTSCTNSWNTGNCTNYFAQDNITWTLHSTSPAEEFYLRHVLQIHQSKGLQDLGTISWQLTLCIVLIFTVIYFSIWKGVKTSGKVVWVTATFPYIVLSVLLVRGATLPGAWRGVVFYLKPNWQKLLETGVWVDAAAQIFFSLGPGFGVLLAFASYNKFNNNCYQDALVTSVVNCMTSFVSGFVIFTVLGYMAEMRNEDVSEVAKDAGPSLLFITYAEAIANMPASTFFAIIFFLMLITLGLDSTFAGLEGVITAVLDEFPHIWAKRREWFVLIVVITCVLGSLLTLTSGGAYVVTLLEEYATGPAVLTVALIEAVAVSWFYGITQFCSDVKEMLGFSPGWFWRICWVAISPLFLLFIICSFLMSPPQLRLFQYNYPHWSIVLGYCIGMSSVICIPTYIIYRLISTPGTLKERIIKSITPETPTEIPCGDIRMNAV
T1 sequence (Q63380 1-617): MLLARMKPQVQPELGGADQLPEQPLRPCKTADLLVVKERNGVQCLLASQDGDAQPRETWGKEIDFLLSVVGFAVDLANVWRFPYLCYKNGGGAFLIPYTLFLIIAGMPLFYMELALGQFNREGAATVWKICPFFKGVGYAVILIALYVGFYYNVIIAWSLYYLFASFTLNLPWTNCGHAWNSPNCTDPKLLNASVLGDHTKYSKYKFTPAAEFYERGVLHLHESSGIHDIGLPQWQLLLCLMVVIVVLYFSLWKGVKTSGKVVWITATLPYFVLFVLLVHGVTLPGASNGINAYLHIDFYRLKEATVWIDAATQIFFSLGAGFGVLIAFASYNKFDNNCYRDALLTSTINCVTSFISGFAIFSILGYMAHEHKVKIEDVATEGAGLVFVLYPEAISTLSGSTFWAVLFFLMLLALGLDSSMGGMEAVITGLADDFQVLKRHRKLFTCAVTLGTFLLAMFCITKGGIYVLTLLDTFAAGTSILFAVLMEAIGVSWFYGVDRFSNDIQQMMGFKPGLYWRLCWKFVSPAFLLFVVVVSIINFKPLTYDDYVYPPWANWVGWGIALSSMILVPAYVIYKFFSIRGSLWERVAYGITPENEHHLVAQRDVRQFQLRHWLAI

SMILES | effect on tetrabenazine-induced behavioural depression [1] | pIC50 [2] | pIC50 [3, 10] | seizures observed, in words [4] | % Died ([4]; i.p., 100 mg/kg) [%] | Seizures (%) ([4]; i.p., 100 mg/kg) | Time to Death ([4]; i.p., 100 mg/kg) [min] | Time to Seizures ([4]; i.p., 100 mg/kg) [min] | % Died ([4]; i.p., 300 mg/kg) [%] | Seizures (%) ([4]; i.p., 300 mg/kg) | Time to Death ([4]; i.p., 300 mg/kg) [min] | Time to Seizures ([4]; i.p., 300 mg/kg) [min] | % Died ([4]; p.o., 100 mg/kg) [%] | Seizures (%) ([4]; p.o., 100 mg/kg) | Time to Seizures ([4]; p.o., 100 mg/kg) [min] | % Died ([4]; p.o., 300 mg/kg) [%] | Seizures (%) ([4]; p.o., 300 mg/kg) | Time to Death ([4]; p.o., 300 mg/kg) [min] | Time to Seizures ([4]; p.o., 300 mg/kg) [min] | dose-effect against TBZ-induced depression ([1]; i.p.) | also measured
CC(NC(C)(C)C)C(=O)c1cccc(Cl)c1.Cl (racemic) [Bupropion, (±)-1-(3-chlorophenyl)-2-[(1,1-dimethylethyl)amino]-1-propanone hydrochloride] | abolished the tetrabenazine-induced behavioural depression | 5.66 | 5.72 | – | – | – | – | – | – | – | – | – | – | – | – | – | – | – | – | – | –
CC1NC(C)(C)COC1(O)c1cccc(Cl)c1.Cl (racemic) [Racemate, (+/−)-(2R*,3R*)-2-(3-chlorophenyl)-3,5,5-trimethyl-2-morpholinol] | – | – | – | seizures were observed | 20 | 100 | 14 | 3 | 100 | 100 | 3 | 3 | 0 | 100 | 9.2 | 80 | 100 | 7 | 6.8 | – | –
C[C@@H]1NC(C)(C)CO[C@@]1(O)c1cccc(Cl)c1 (single isomer, unassigned) [Formula (I)] | abolished the tetrabenazine-induced behavioural depression | – | 5.03 | – | 0 | 100 | – | 3.93 | 100 | 100 | 6 | 3.95 | 0 | 0 | – | 0 | 100 | – | 11.23 | sharp increase in activity between 3 mg/kg and 6 mg/kg | % Died ([4]; i.p., 100 mg/kg, listed as compound of formula I): No deaths were observed; % Died ([4]; p.o., 300 mg/kg, listed as compound of formula I): no deaths were observed; potency as NA inhibitor relative to Wellbutrin ([2]; versus Wellbutrin): approximately twice as potent; pIC50 ([3]; IC50, [3H]-Dopamine Uptake): ~5.00; potency as inhibitor of dopamine uptake, fold less potent ([3]; unlike Wellbutrin, comparison as worded): approximately 10 fold; M/F interaction [5, 11]: *228.8 ± 30.3 sec; Mount frequency, No. of events ± SEM [5, 11]: 6.6 ± 1.7; Time spent in genital sniffing [5, 11]: *203.6 ± 30.1 sec; genital sniffing, change in words [5, 12]: statistically significant (unpaired t-test) increase; male/female interaction, change in words [5, 12]: statistically significant (unpaired t-test) increase; mount frequency, change in words [5, 12]: trend towards increasing mount frequency; pIC50 [6]: < 4.52; locomotor deficits ([7]; FIG. 4): reversed the locomotor deficits; motor disability ([7]; FIG. 5): reversed; mechanical paw withdrawal threshold on cessation of treatment ([8]; after 20 mgkg−1 t.i.d. p.o. for 7 days): falling back towards CCI-operated vehicle-treated levels; mechanical paw withdrawal threshold during chronic dosing ([8]; hydrochloride salt, 20 mgkg−1 t.i.d. p.o. for 7 days): reversal was maintained throughout the chronic dosing period; mechanical paw withdrawal threshold after a single dose ([8]; hydrochloride salt, single dose 20 mgkg−1 p.o.): immediate reversal of the fall in paw withdrawal threshold back towards sham operated levels; inhibition of serotonin uptake at a fixed concentration [9]: Neither compound inhibited serotonin uptake
C[C@H]1NC(C)(C)CO[C@]1(O)c1cccc(Cl)c1 (single isomer, unassigned) [Formula (II)] | only modest activity | < 4.52 | < 4.00 | seizures were observed | 100 | 20 | 7 | 5 | 100 | 100 | 6 | 1.1 | 0 | 100 | 7.2 | 100 | 100 | 7 | 6.8 | did not possess dose-related activity | effect on TBZ-induced depression at the top dose ([1]; 50 mg/kg, i.p., FIG. 3): appeared to worsen the animal's condition; inhibition of noradrenaline (NA) uptake at a fixed concentration ([2]; at a concentration of 30 μM): ineffective; inhibition of dopamine (DA) uptake at a fixed concentration ([3]; at 30 μM): inactive; pIC50 [6]: < 4.00; inhibition of serotonin uptake at a fixed concentration [9]: Neither compound inhibited serotonin uptake
CC1NC(C)(C)COC1(O)c1cccc(Cl)c1 (stereo not drawn) [Racemate, (+/−)-(2R*,3R*)-2-(3-chlorophenyl)-3,5,5-trimethyl-2-morpholinol] | abolished the tetrabenazine-induced behavioural depression | – | – | – | – | – | – | – | – | – | – | – | – | – | – | – | – | – | – | – | –
CN(C)CCC=C1c2ccccc2CCc2ccccc21 [amitryptyline] | abolished the tetrabenazine-induced behavioural depression | – | – | – | – | – | – | – | – | – | – | – | – | – | – | – | – | – | – | – | –
